From patent publication US9409952B2, “Peptide-compound cyclization method” (Chugai Seiyaku Kabushiki Kaisha, priority 2011, dated 2016)
Where a name gives a salt, the structure may show the parent alone. Read-outs that look alike come from different tables or passages of the source. Starred links: 1 amine or outer side, 2 acyl side, 3 side chain; linkers in the order of their positions; H or OH if unused. Positions of bridges follow the written chain, without caps; N, C: chain ends. Non-standard residues stand in square brackets, D forms with d. Residues, ends and D or L forms follow the SMILES beside them. *: point of attachment. Phe(4-(CH2)5CO) = O=C([C@H](Cc1ccc(CCCCCC(=O)[*:3])cc1)N[*:1])[*:2]; Phe(4-CF3) = N[C@@H](Cc1ccc(C(F)(F)F)cc1)C(=O)O; Met(O2) = CS(=O)(=O)CC[C@H](N)C(=O)O; NMeF = CN[C@@H](Cc1ccccc1)C(=O)O; NMeGABA = CN(CCCC(=O)[*:2])[*:1]; NMeI = CC[C@H](C)[C@H](NC)C(=O)O; NMeβAla = CN(CCC(=O)[*:2])[*:1]; Aoc(2) = CCCCCC[C@H](N)C(=O)O; NMeL = CN[C@@H](CC(C)C)C(=O)O; NMeV = CN[C@H](C(=O)O)C(C)C; NMeS = CN[C@@H](CO)C(=O)O; NMeA = CN[C@@H](C)C(=O)O; Piperidide = C1CCN(*)CC1; dNMeA = CN[C@H](C)C(=O)O; β3hA = C[C@H](N)CC(=O)O; Abu = CC[C@H](N)C(=O)O; Sar = CNCC(=O)O; tBu = CC(C)(C)*

Tests used:
[1] = Metabolic stability in human hepatic microsome; format: in vitro ADME; details: microsomes
[2] = PAMPA (parallel artificial membrane permeability assay); format: in vitro ADME; details: PAMPA
Procedure, shortened: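 Artificial membrane was 10% (w/v) egg lecithin plus 0.5% (w/v) cholesterol in dodecane on a PVDF filter. A 10 mM DMSO stock was added at 0.5% (v/v) to donor buffer (50 mM MOPSO, pH 6.5, 5.0% glycocholic acid). After 18 h at 37 °C, LC/MS or LC/UV gave donor and acceptor levels for Pe.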

[3] = pH 7.4, human hepatic microsome, NADPH(+), read-out: CL NADPH(+)
[4] = membrane permeation rate (Pe), 50 mM MOPSO buffer pH 6.5 with 5.0% glycocholic acid, 37° C., 18 hours, read-out: iPAMPA Pe

Row | SMILES | microsomal CLint at 1 uM ([1]; human, pH 7.4, CL NADPH(+)) [µL/min/mg] | Papp at 18 hours, 50 µM ([2]; pH 6.5) [×10⁻⁶ cm/s] | microsomal CLint at 1 uM [1, 3] [µL/min/mg] | Papp at 18 hours, 50 µM [2, 4] [×10⁻⁶ cm/s]
1 | CC[C@H](C)[C@H]1C(=O)N[C@@H](CC(C)C)C(=O)N(C)CC(=O)N[C@@H]([C@@H](C)O)C(=O)N[C@@H](Cc2ccccc2)C(=O)N[C@@H](C)C(=O)N(C)[C@@H](CC(C)C)C(=O)N[C@@H](Cc2ccccc2)C(=O)N[C@@H](C(C)C)C(=O)N[C@H](C(=O)N2CCCCC2)CC(=O)N[C@@H](C)C(=O)N[C@@H](CC(C)C)C(=O)N1C [DP-35] (AL[NMeI]L[Sar]TFA[NMeL]FVD-Piperidide; lactam N-12) | 32 | 12 | – | –
2 | CC[C@H](C)[C@@H]1NC(=O)[C@H](CC(C)C)N(C)C(=O)[C@H](CC(C)C)N(C)C(=O)[C@H](C)NC(=O)CCCN(C)C(=O)C[C@@H](C(=O)N2CCCCC2)NC(=O)[C@H](CC(C)C)N(C)C(=O)[C@H](Cc2ccccc2)N(C)C(=O)CN(C)C(=O)[C@H]([C@@H](C)O)NC(=O)[C@H](Cc2ccccc2)N(C)C1=O [DP-275] ([NMeGABA]A[NMeL][NMeL]I[NMeF]T[Sar][NMeF][NMeL]D-Piperidide; lactam N-11) | 440 | 36 | – | –
3 | CC[C@H](C)[C@@H]1NC(=O)[C@H](Cc2ccccc2)N(C)C(=O)CCCCCc2ccc(cc2)C[C@@H](C(=O)N2CCCCC2)NC(=O)[C@H](C(C)C)N(C)C(=O)[C@H](Cc2ccccc2)N(C)C(=O)[C@H](COC(C)(C)C)NC(=O)[C@H](CC(C)C)N(C)C(=O)CN(C)C(=O)[C@H]([C@@H](C)O)NC(=O)[C@H](CC(C)C)N(C)C1=O [DP-861] ([NMeF]I[NMeL]T[Sar][NMeL]S(tBu)[NMeF][NMeV][Phe(4-(CH2)5CO)]-Piperidide; lactam N-10) | – | – | 320 | 2.9
4 | CC(C)C[C@@H]1NC(=O)[C@H]([C@@H](C)O)NC(=O)[C@H](CC(C)C)N(C)C(=O)CN(C)C(=O)[C@H](Cc2ccccc2)N(C)C(=O)[C@H](C(C)C)NC(=O)C[C@@H](C(=O)N2CCCCC2)NC1=O [DP-720] (V[NMeF][Sar][NMeL]TLD-Piperidide; lactam N-7) | – | – | 62 | 16
5 | CC(C)C[C@H]1C(=O)N[C@H](C(=O)N2CCCCC2)CC(=O)N(C)[C@H](C)C(=O)N(C)[C@@H](Cc2ccccc2)C(=O)N(C)[C@@H](CC(C)C)C(=O)N[C@@H]([C@@H](C)O)C(=O)N(C)[C@@H](CC(C)C)C(=O)N[C@@H](COC(C)(C)C)C(=O)N1C [DP-683] ([dNMeA][NMeF][NMeL]T[NMeL]S(tBu)[NMeL]D-Piperidide; lactam N-8) | – | – | 53 | 32
6 | CCCCCC[C@@H]1NC(=O)[C@H](CO)N(C)C(=O)C[C@H](C)NC(=O)[C@H](CC(C)C)N(C)C(=O)[C@H](CC(C)C)N(C)C(=O)[C@@H](CC(C)C)NC(=O)[C@H](CC)NC(=O)[C@H](CC(C)C)N(C)C(=O)[C@H](C(C)C)NC(=O)[C@H](CC(C)C)N(C)C(=O)CN(C)C1=O [DP-648] (cyclo([Abu][dL][NMeL][NMeL][β3hA][NMeS][Aoc(2)][Sar][NMeL]V[NMeL])) | – | – | 109 | 53
7 | CC[C@H](C)[C@@H]1NC(=O)[C@H](C)N(C)C(=O)[C@H]([C@@H](C)O)NC(=O)[C@H](CC(C)C)N(C)C(=O)[C@H](Cc2ccccc2)NC(=O)[C@H](C(C)C)N(C)C(=O)[C@@H](C)N(C)C(=O)C[C@@H](C(=O)N(C)[C@@H](Cc2ccccc2)C(=O)N[C@@H](C)C(=O)N2CCCCC2)NC(=O)[C@H](C)N(C)C(=O)[C@H](CC(C)C)N(C)C1=O [DP-453] ([dNMeA][NMeV]F[NMeL]T[NMeA]I[NMeL][NMeA]D[NMeF]A-Piperidide; lactam N-10) | – | – | 64 | 25
8 | CC(C)C[C@H]1C(=O)N(C)[C@@H](Cc2ccccc2)C(=O)N(C)[C@@H](CC(C)C)C(=O)N[C@@H]([C@@H](C)O)C(=O)N[C@H](C(=O)N2CCCCC2)CC(=O)N[C@H](C(C)C)C(=O)N(C)[C@@H](C)C(=O)N(C)[C@@H](CC(C)C)C(=O)N[C@@H](CCS(C)(=O)=O)C(=O)N(C)[C@@H](Cc2ccccc2)C(=O)N[C@@H](Cc2ccccc2)C(=O)N1C [DP-621] ([dV][NMeA][NMeL][Met(O2)][NMeF]F[NMeL][NMeF][NMeL]TD-Piperidide; lactam N-11) | – | – | 11 | 21
9 | CC[C@H](C)[C@@H]1NC(=O)[C@H](CC(C)C)N(C)C(=O)[C@H](C)NC(=O)CN(C)C(=O)[C@H](Cc2ccc(C(F)(F)F)cc2)NC(=O)[C@H]([C@@H](C)O)NC(=O)[C@H](CC(C)C)N(C)C(=O)CCN(C)C(=O)C[C@H](C)NC(=O)[C@H](CC(C)C)N(C)C(=O)[C@H](CC(C)C)N(C)C1=O [DP-805] (cyclo(A[NMeL]I[NMeL][NMeL][β3hA][NMeβAla][NMeL]T[Phe(4-CF3)][Sar])) | – | – | 169 | 41
